Measurements published in ChEMBL document CHEMBL1201862, “PubChem BioAssay data set” (2004).
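96-well plates; 48 h exposure; 5 concentrations. Endpoints by linear interpolation between flanking doses. Not reached: highest tested concentration assigned. GI50 marks 50% less growth.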 The source made the active and inactive calls. Cut-off read from the data, not from the text of the source: active = GI50 up to about 1.1 µM and inactive = higher.

Tests used:
Assay in all cases: NCI tumour cell line growth inhibition, 48 h
786-0 = tested on: 786-0
SK-MEL-2 = tested on: SK-MEL-2
HCT-116 = tested on: HCT-116
SF-295 = tested on: SF-295
NCI/ADR-RES = tested on: NCI/ADR-RES
ACHN = tested on: ACHN
IGROV-1 = tested on: IGROV-1
EKVX = tested on: EKVX
CAKI-1 = tested on: CAKI-1
A498 = tested on: A498
TK-10 = tested on: TK-10
UACC-257 = tested on: UACC-257
RPMI-8226 = tested on: RPMI-8226
SR = tested on: SR
HCT-15 = tested on: HCT-15
OVCAR-3 = tested on: OVCAR-3
NCI-H460 = tested on: NCI-H460
HOP-92 = tested on: HOP-92
OVCAR-8 = tested on: OVCAR-8
MDA-MB-435 = tested on: MDA-MB-435

SMILES	GI50 (786-0)	GI50 (SK-MEL-2)	GI50 (HCT-116)	GI50 (SF-295)	GI50 (NCI/ADR-RES)	GI50 (ACHN)	GI50 (IGROV-1)	GI50 (EKVX)	GI50 (CAKI-1)	GI50 (A498)	GI50 (TK-10)	GI50 (UACC-257)	GI50 (RPMI-8226)	GI50 (SR)	GI50 (HCT-15)	GI50 (OVCAR-3)	GI50 (NCI-H460)	GI50 (HOP-92)	GI50 (OVCAR-8)	GI50 (MDA-MB-435)
O=C(Nc1cccc(C(F)(F)F)c1)O/N=C(/Cl)CCl	40.5 µM (inactive)	67.6 µM (inactive)	55.7 µM (inactive)	49.5 µM (inactive)	> 100 µM (inactive)	> 100 µM (inactive)	62.4 µM (inactive)	> 100 µM (inactive)	> 100 µM (inactive)	> 100 µM (inactive)	> 100 µM (inactive)	> 100 µM (inactive)	27 µM (inactive)	22.6 µM (inactive)	46.3 µM	38.9 µM (inactive)	> 100 µM (inactive)	22 µM (inactive)	> 100 µM (inactive)	–
COC(=O)C(=O)C(C(=O)C(=O)Nc1ccccc1C(N)=O)c1nc2ccc([N+](=O)[O-])cc2nc1O (centres undefined)	> 100 µM (inactive)	> 100 µM (inactive)	> 100 µM (inactive)	> 100 µM (inactive)	–	> 100 µM (inactive)	> 100 µM (inactive)	> 100 µM (inactive)	> 100 µM (inactive)	> 100 µM (inactive)	> 100 µM (inactive)	> 100 µM (inactive)	> 100 µM (inactive)	> 100 µM (inactive)	> 100 µM	–	> 100 µM (inactive)	> 100 µM (inactive)	> 100 µM (inactive)	–
CC1=C(C)C(=O)OC(C(C)(O)C2(O)CC3OC34C3CC(O)C56OC5C=CC(=O)C6(C)C3CCC42C)C1 (centres undefined)	1.51 µM (inactive)	2.59 µM (inactive)	1.38 µM (inactive)	3.48 µM (inactive)	–	0.845 µM (active)	1.72 µM (inactive)	2.36 µM (inactive)	2.5 µM (inactive)	2.73 µM (inactive)	1.5 µM (inactive)	1.6 µM (inactive)	1.24 µM (inactive)	–	0.791 µM	1.19 µM (inactive)	1.45 µM (inactive)	1.82 µM (inactive)	1.85 µM (inactive)	1.15 µM (inactive)
CCCN1C(=O)CNC(=O)c2[nH]cnc21	> 100 µM (inactive)	> 100 µM (inactive)	> 100 µM (inactive)	> 100 µM (inactive)	–	> 100 µM (inactive)	> 100 µM (inactive)	> 100 µM (inactive)	> 100 µM (inactive)	> 100 µM (inactive)	> 100 µM (inactive)	> 100 µM (inactive)	> 100 µM (inactive)	> 100 µM (inactive)	> 100 µM	> 100 µM (inactive)	> 100 µM (inactive)	> 100 µM (inactive)	> 100 µM (inactive)	–
CC(=O)OC1CC2C(C)(C)OC(=O)CC(OC(C)=O)[C@]2(C)C2CCC3(C)C(=CCC3c3ccoc3)[C@]12C (some centres undefined)	19.4 µM (inactive)	10.9 µM (inactive)	14.4 µM (inactive)	18 µM (inactive)	–	25.1 µM (inactive)	24.5 µM (inactive)	15.5 µM (inactive)	31.3 µM (inactive)	17.6 µM (inactive)	49 µM (inactive)	–	18.2 µM (inactive)	8.15 µM (inactive)	26.2 µM	16.2 µM (inactive)	21.4 µM (inactive)	6.32 µM (inactive)	18.1 µM (inactive)	–
COc1cccc([C@@]2(O)c3c(ccc(O)c3OC)[C@H]2OC)c1OC	14.4 µM (inactive)	37.8 µM (inactive)	–	57.8 µM (inactive)	–	31.3 µM (inactive)	40.6 µM (inactive)	47.2 µM (inactive)	22.6 µM (inactive)	58.1 µM (inactive)	31.1 µM (inactive)	98.2 µM (inactive)	39.1 µM (inactive)	38.5 µM (inactive)	–	23.9 µM (inactive)	47.4 µM (inactive)	62.7 µM (inactive)	38.5 µM (inactive)	–
CCCC1=C(CC)C(C(=O)Nc2c(C)cccc2C)=NC(S)N1 (centres undefined)	> 100 µM (inactive)	> 100 µM (inactive)	> 100 µM (inactive)	> 100 µM (inactive)	–	> 100 µM (inactive)	> 100 µM (inactive)	> 100 µM (inactive)	> 100 µM (inactive)	> 100 µM (inactive)	> 100 µM (inactive)	> 100 µM (inactive)	> 100 µM (inactive)	> 100 µM (inactive)	> 100 µM	> 100 µM (inactive)	> 100 µM (inactive)	> 100 µM (inactive)	> 100 µM (inactive)	–
COc1cc(-c2nnc3n2NC=C(C(=O)O)S3)cc(OC)c1OC	> 58.7 µM (inactive)	> 100 µM (inactive)	> 55.1 µM (inactive)	> 100 µM (inactive)	–	> 100 µM (inactive)	> 100 µM (inactive)	> 100 µM (inactive)	> 100 µM (inactive)	> 100 µM (inactive)	> 100 µM (inactive)	> 100 µM (inactive)	> 49.4 µM (inactive)	41.6 µM (inactive)	> 54.5 µM	> 100 µM (inactive)	> 71.4 µM (inactive)	> 100 µM (inactive)	> 100 µM (inactive)	–
Cc1cc(Cl)ccc1Nc1nc2c(s1)C(=O)c1ccccc1C2=O	1.71 µM (inactive)	8.45 µM (inactive)	2.12 µM (inactive)	9.12 µM (inactive)	–	3.98 µM (inactive)	4.51 µM (inactive)	9.04 µM (inactive)	6.3 µM (inactive)	22.2 µM (inactive)	16.9 µM (inactive)	2.53 µM (inactive)	2.92 µM (inactive)	2.8 µM (inactive)	1.85 µM	1.43 µM (inactive)	3.32 µM (inactive)	13.9 µM (inactive)	2.88 µM (inactive)	0.378 µM (active)
O=c1nc(N2CCCC2)nc(N2CCCC2)s1	> 100 µM (inactive)	> 100 µM (inactive)	> 100 µM (inactive)	> 100 µM (inactive)	–	> 100 µM (inactive)	> 100 µM (inactive)	> 100 µM (inactive)	97.9 µM (inactive)	> 100 µM (inactive)	> 100 µM (inactive)	> 100 µM (inactive)	> 100 µM (inactive)	> 100 µM (inactive)	> 100 µM	–	> 100 µM (inactive)	> 100 µM (inactive)	> 100 µM (inactive)	–
COc1cc(C2[C@H]3C(=O)N(c4ccc(Cc5ccc(N6C(=O)[C@@H]7ON(c8ccccc8)C(c8cc(OC)c(OC)c(OC)c8)[C@@H]7C6=O)cc5)cc4)C(=O)[C@H]3ON2c2ccccc2)cc(OC)c1OC (some centres undefined)	> 100 µM (inactive)	> 100 µM (inactive)	> 100 µM (inactive)	> 100 µM (inactive)	–	> 100 µM (inactive)	> 100 µM (inactive)	> 100 µM (inactive)	> 100 µM (inactive)	> 100 µM (inactive)	> 100 µM (inactive)	> 100 µM (inactive)	> 100 µM (inactive)	> 100 µM (inactive)	> 100 µM	> 100 µM (inactive)	> 100 µM (inactive)	–	> 100 µM (inactive)	–
Cn1cnc(S[C@H]2[C@H]3C(=O)C=C4S[C@H]5C[C@]42C2=C(N5)C(=O)c4[nH]cc5c4C2=[N+]3CC5)c1C[C@H](N)C(=O)O	19 µM (inactive)	13.7 µM (inactive)	3.7 µM (inactive)	15.8 µM (inactive)	–	14.8 µM (inactive)	16.4 µM (inactive)	17.7 µM (inactive)	27 µM (inactive)	18.8 µM (inactive)	38.3 µM (inactive)	16.1 µM (inactive)	16.7 µM (inactive)	19.1 µM (inactive)	30.8 µM	3.5 µM (inactive)	27.5 µM (inactive)	18.9 µM (inactive)	13.6 µM (inactive)	–
Cc1c2ccncc2c(C)c2c1[nH]c1ccc(OC(C)C)cc12	1.19 µM (inactive)	1.58 µM (inactive)	0.736 µM (active)	1.36 µM (inactive)	–	1.29 µM (inactive)	1.43 µM (inactive)	1.4 µM (inactive)	1.6 µM (inactive)	1.47 µM (inactive)	1.91 µM (inactive)	1.82 µM (inactive)	1.99 µM (inactive)	0.668 µM (active)	0.984 µM	1.61 µM (inactive)	1.03 µM (active)	1.51 µM (inactive)	1.04 µM (active)	–
C1CNOCCCONCCCNOCCCONC1	> 100 µM (inactive)	25.1 µM (inactive)	> 100 µM (inactive)	93.1 µM (inactive)	95.3 µM (inactive)	> 100 µM (inactive)	56.1 µM (inactive)	50.2 µM (inactive)	> 100 µM (inactive)	42.5 µM (inactive)	31 µM (inactive)	41.7 µM (inactive)	–	–	> 100 µM	62.2 µM (inactive)	32.1 µM (inactive)	26.1 µM (inactive)	60.7 µM (inactive)	> 100 µM (inactive)
O=C1C(NCCN2CCOCC2)=C(Cl)C(=O)c2ncccc21	0.431 µM (active)	0.226 µM (active)	0.348 µM (active)	1.4 µM (inactive)	–	1.1 µM (active)	1.05 µM (active)	1.48 µM (inactive)	–	2.03 µM (inactive)	1.45 µM (inactive)	–	0.1 µM (active)	1.32 µM (inactive)	0.339 µM	0.392 µM (active)	0.445 µM (active)	2.08 µM (inactive)	0.377 µM (active)	0.182 µM (active)
CCc1cc2c(oc3c4ccccc4ccc23)c(=O)[nH]1	> 10 µM (inactive)	–	> 10 µM (inactive)	> 10 µM (inactive)	–	> 10 µM (inactive)	> 10 µM (inactive)	> 10 µM (inactive)	–	–	> 10 µM (inactive)	> 10 µM (inactive)	–	> 10 µM (inactive)	–	> 10 µM (inactive)	> 10 µM (inactive)	> 10 µM (inactive)	> 10 µM (inactive)	> 10 µM (inactive)
